# Measured values published in US20190328691A1, “ANTIBIOTIC THERAPY” (Boulos & Cooper Pharmaceuticals Pty Ltd, priority 2015, published 2019).
# Where two headings read alike, the source gives them in different places.
# Columns and labels:
# [1] = test system: Staphylococcus aureus (ATCC 29213); test: Checkerboard combination / MIC assay with S. aureus ATCC 29213; assay type: cell-based; settings: S. aureus ATCC 29213; for MIC: Staphylococcus aureus, read-out: MIC of antibiotic alone
# Method in brief: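 CLSI broth microdilution checkerboard in CAMHB, final inoculum 5×10^5 CFU/mL, 2% DMSO. Ramizol or Chlopam (11-point 2-fold) crossed with commercial antibiotics (7-point), each starting at 4× MIC; synergy assessed by FIC index (sum of MIC-in-combination/MIC-alone ratios; ≤0.5 synergy, >4 antagonism).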
# [2] = test system: Staphylococcus aureus (BAA-1717); test: Checkerboard combination / MIC assay with S. aureus BAA-1717 (MRSA); assay type: cell-based; settings: for Effect of individual antibiotic combinations: S. aureus BAA-1717
# Method in brief: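 CLSI broth microdilution checkerboard in CAMHB (5×10^5 CFU/mL, 2% DMSO final). Ramizol or Chlopam was tested in 11-point two-fold series against 7-point antibiotic titrations, starting at 4× MIC.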
compound,measurement,setting,value
C/C(=C\C(=O)OCCCCCCCCC(=O)O)C[C@@H]1OC[C@H](C[C@@H]2O[C@H]2[C@@H](C)[C@H](C)O)[C@@H](O)[C@H]1O [Mupirocin],FICI of combination with Chlopam,[1]; Chlopam 0.003906 μg/mL + labelled antibiotic at MIC of same cell,1.0
same,MIC of antibiotic in combination with Chlopam,[1]; Chlopam 0.003906 μg/mL,0.5 µg/mL
same,FICI of combination with Chlopam,[1]; Chlopam 0.0078125 μg/mL + labelled antibiotic at MIC of same cell,1.0
same,MIC of antibiotic in combination with Chlopam,[1]; Chlopam 0.0078125 μg/mL,0.5 µg/mL
same,FICI of combination with Chlopam,[1]; Chlopam 0.015625 μg/mL + labelled antibiotic at MIC of same cell,1.0
same,MIC of antibiotic in combination with Chlopam,[1]; Chlopam 0.015625 μg/mL,0.5 µg/mL
same,FICI of combination with Chlopam,[1]; Chlopam 0.25 μg/mL + labelled antibiotic at MIC of same cell,1.0
same,MIC of antibiotic in combination with Chlopam,[1]; Chlopam 0.25 μg/mL,0.25 µg/mL
same,Effect of individual antibiotic combinations,"[1]; Chlopam and mupirocin: 0.003901 and 0.5, 0.0078125 and 0.5, 0.015625 and 0.5, 0.25 and 0.25 μg/mL",additive effect
same,FICI of combination with Ramizol,[1]; Ramizol 0.015625 μg/mL + labelled antibiotic at MIC of same cell,1.0
same,MIC of antibiotic in combination with Ramizol,[1]; Ramizol 0.015625 μg/mL,0.5 µg/mL
same,FICI of combination with Ramizol,[1]; Ramizol 0.03125 μg/mL + labelled antibiotic at MIC of same cell,1.0
same,MIC of antibiotic in combination with Ramizol,[1]; Ramizol 0.03125 μg/mL,0.5 µg/mL
same,FICI of combination with Ramizol,[1]; Ramizol 0.0625 μg/mL + labelled antibiotic at MIC of same cell,1.0
same,MIC of antibiotic in combination with Ramizol,[1]; Ramizol 0.0625 μg/mL,0.5 µg/mL
same,FICI of combination with Ramizol,[1]; Ramizol 0.125 μg/mL + labelled antibiotic at MIC of same cell,1.0
same,MIC of antibiotic in combination with Ramizol,[1]; Ramizol 0.125 μg/mL,0.5 µg/mL
same,FICI of combination with Ramizol,[1]; Ramizol 0.25 μg/mL + labelled antibiotic at MIC of same cell,1.0
same,MIC of antibiotic in combination with Ramizol,[1]; Ramizol 0.25 μg/mL,0.5 µg/mL
same,Effect of individual antibiotic combinations,"[1]; Ramizol and mupirocin: 0.015625 and 0.5, 0.03125 and 0.5, 0.0625 and 0.5, 0.125 and 0.5, 0.25 and 0.5 μg/mL",additive effect
same,MIC,"[1]; ATCC29213, Table 4, checkerboard series with Chlopam",0.5 µg/mL
same,MIC,"[1]; ATCC29213, Table 7, checkerboard series with Ramizol",0.5 µg/mL
same,mean FICI of combination with Chlopam,"[1]; labelled antibiotic + Chlopam, mean of all pairwise combinations",1.1
same,mean FICI of combination with Ramizol,"[1]; labelled antibiotic + Ramizol, mean of all pairwise combinations",1.1
same,FICI of combination with Chlopam,"[2]; Chlopam 0.001953 μg/mL + labelled antibiotic at MIC of same cell, S. aureus ATCC BAA-1717",1.0
same,MIC of antibiotic in combination with Chlopam,"[2]; Chlopam 0.001953 μg/mL, S. aureus ATCC BAA-1717",0.5 µg/mL
same,FICI of combination with Chlopam,"[2]; Chlopam 0.003906 μg/mL + labelled antibiotic at MIC of same cell, S. aureus ATCC BAA-1717",1.0
same,MIC of antibiotic in combination with Chlopam,"[2]; Chlopam 0.003906 μg/mL, S. aureus ATCC BAA-1717",0.5 µg/mL
same,FICI of combination with Chlopam,"[2]; Chlopam 0.0078125 μg/mL + labelled antibiotic at MIC of same cell, S. aureus ATCC BAA-1717",1.0
same,MIC of antibiotic in combination with Chlopam,"[2]; Chlopam 0.0078125 μg/mL, S. aureus ATCC BAA-1717",0.5 µg/mL
same,FICI of combination with Chlopam,"[2]; Chlopam 0.015625 μg/mL + labelled antibiotic at MIC of same cell, S. aureus ATCC BAA-1717",1.0
same,MIC of antibiotic in combination with Chlopam,"[2]; Chlopam 0.015625 μg/mL, S. aureus ATCC BAA-1717",0.5 µg/mL
same,FICI of combination with Chlopam,"[2]; Chlopam 0.5 μg/mL + labelled antibiotic at MIC of same line, S. aureus ATCC BAA-1717",1.0
same,MIC of antibiotic in combination with Chlopam,"[2]; Chlopam 0.5 μg/mL, S. aureus ATCC BAA-1717",0.016 µg/mL
same,Effect of individual antibiotic combinations,"[2]; Chlopam and mupirocin: 0.001953 and 0.5, 0.003901 and 0.5, 0.0078125 and 0.5, 0.015625 and 0.5, 0.5 and 0.016 μg/mL",additive effect
same,FICI of combination with Ramizol,"[2]; Ramizol 0.015625 μg/mL + labelled antibiotic at MIC of same cell, S. aureus ATCC BAA-1717",1.0
same,MIC of antibiotic in combination with Ramizol,"[2]; Ramizol 0.015625 μg/mL, S. aureus ATCC BAA-1717",0.5 µg/mL
same,FICI of combination with Ramizol,"[2]; Ramizol 0.03125 μg/mL + labelled antibiotic at MIC of same cell, S. aureus ATCC BAA-1717",1.0
same,MIC of antibiotic in combination with Ramizol,"[2]; Ramizol 0.03125 μg/mL, S. aureus ATCC BAA-1717",0.5 µg/mL
same,FICI of combination with Ramizol,"[2]; Ramizol 0.0625 μg/mL + labelled antibiotic at MIC of same cell, S. aureus ATCC BAA-1717",1.0
same,MIC of antibiotic in combination with Ramizol,"[2]; Ramizol 0.0625 μg/mL, S. aureus ATCC BAA-1717",0.5 µg/mL
same,FICI of combination with Ramizol,"[2]; Ramizol 0.125 μg/mL + labelled antibiotic at MIC of same line, S. aureus ATCC BAA-1717",1.0
same,MIC of antibiotic in combination with Ramizol,"[2]; Ramizol 0.125 μg/mL, S. aureus ATCC BAA-1717",0.5 µg/mL
same,FICI of combination with Ramizol,"[2]; Ramizol 4 μg/mL + labelled antibiotic at MIC of same cell, S. aureus ATCC BAA-1717",1.0
same,MIC of antibiotic in combination with Ramizol,"[2]; Ramizol 4 μg/mL, S. aureus ATCC BAA-1717",0.016 µg/mL
same,Effect of individual antibiotic combinations,"[2]; Ramizol and mupirocin: 0.015625 and 0.5, 0.03125 and 0.5, 0.0625 and 0.5, 0.125 and 0.5, 4 and 0.016 μg/mL",additive effect
same,MIC,"[2]; Staphylococcus aureus, ATCC BAA-1717 / BAA-1717, Table 4, checkerboard series with Chlopam, S. aureus ATCC BAA-1717, read-out: MIC of antibiotic alone",0.5 µg/mL
same,mean FICI of combination with Chlopam,"[2]; labelled antibiotic + Chlopam, mean of all pairwise combinations, S. aureus ATCC BAA-1717",1.2
same,mean FICI of combination with Ramizol,"[2]; labelled antibiotic + Ramizol, mean of all pairwise combinations, S. aureus ATCC BAA-1717",(1.2)
